Molecular target: GABAA central benzodiazepine receptor
Assay: Benzodiazepine Binding Assay
Conditions: read-out: BZ binding Assay IC50; 1 nM (3H)-flunitrazepam, rat whole brain (except cerebellum) membranes, 60 minutes at 25° C.

Molecule | IC50 [nM]
CC1CN(C(=O)n2cc3c(=O)n(-c4ccccc4)nc-3c3ccccc32)CC(C)O1 (stereo not shown) [Compd 6] | < 1000
5-(4-Isopropylpiperazine-1-carbonyl)-7,8-difluoro-4-methyl-2-phenyl-2,5-dihydro-pyrazolo-(4,3-c)quinolin-3-one [Compd 48] | > 1000
O=C(N1CCC(O)CC1)n1cc2c(=O)n(-c3ccsc3)nc-2c2cc(F)c(F)cc21 [Compd 50, 5-(4-Hydroxypiperidine-1-carbonyl)-2-(thiophen-3-yl)-7,8-difluoro-2,5-dihydro-pyrazolo[4,3-c]quinolin-3-one] | < 1000
CN(C)C(=O)n1cc2c(=O)n(-c3ccccc3)nc-2c2ccccc21 [Compd 32, 5-(Dimethylaminocarbonyl)-2-phenyl-2,5-dihydro-pyrazolo-(4,3-c)quinolin-3-one] | < 1000
CC(C)N1CCN(C(=O)n2cc3c(=O)n(-c4ccccc4)nc-3c3cc(N4CCOCC4)ccc32)CC1 [Compd 34, 5-(4-Isopropylpiperazine-1-carbonyl)-8-morpholino-2-phenyl-2,5-dihydro-pyrazolo-(4,3-c)quinolin-3-one] | < 1000
CC1CCN(C(=O)n2cc3c(=O)n(-c4ccccc4)nc-3c3ccccc32)CC1 [Compd 5, 5-(4-Methylpiperidine-1-carbonyl)-2-phenyl-2,5-dihydro-pyrazolo-(4,3-c)quinolin-3-one] | < 1000

Results, then the molecule that gave them:

IC50 [nM] | Molecule
< 1000 | CCCN1CCN(C(=O)n2cc3c(=O)n(-c4ccccc4)nc-3c3ccccc32)CC1 [Compd 40, 5-(4-Propylpiperazine-1-carbonyl)-2-phenyl-2,5-dihydro-pyrazolo-(4,3-c) quinolin-3-one]
< 1000 | CC(C)N1CCN(C(=O)n2cc3c(=O)n(-c4ccccc4)nc-3c3ccccc32)CC1 [Compd 8, 5-(4-Isopropylpiperazine-1-carbonyl)-2-phenyl-2,5-dihydro-pyrazolo-(4,3-c)quinolin-3-one]
< 1000 | C=CCN1CCN(C(=O)n2cc3c(=O)n(-c4ccccc4)nc-3c3ccccc32)CC1 [Compd 14, 5-(4-Allylpiperazine-1-carbonyl)-2-phenyl-2,5-dihydro-pyrazolo-(4,3-c) quinolin-3-one]
< 1000 | COCCN1CCN(C(=O)n2cc3c(=O)n(-c4ccccc4)nc-3c3ccccc32)CC1 [Compd 7, 5-(4-(2-Methoxyethyl)-piperazine-1-carbonyl)-2-phenyl-2,5-dihydro-pyrazolo-(4,3-c)quinolin-3-one]

Source: US8343957B2, “Therapeutic pyrazoloquinoline urea derivatives” (Dart Neuroscience (Cayman) Ltd., priority 2007, dated 2013)
